Broadly, the IC50 is the point on the concentration scale where inhibition reaches its midpoint. Usually solubility stands for the dissolved amount per volume that the medium holds. Higher therefore signals a readily soluble substance. The term half-life denotes how long it takes for the measured level to halve.

In brackets after ≈: the same amount, converted by molar mass.

Chain of Cytochrome P450 2D6 (P10635 whole entry): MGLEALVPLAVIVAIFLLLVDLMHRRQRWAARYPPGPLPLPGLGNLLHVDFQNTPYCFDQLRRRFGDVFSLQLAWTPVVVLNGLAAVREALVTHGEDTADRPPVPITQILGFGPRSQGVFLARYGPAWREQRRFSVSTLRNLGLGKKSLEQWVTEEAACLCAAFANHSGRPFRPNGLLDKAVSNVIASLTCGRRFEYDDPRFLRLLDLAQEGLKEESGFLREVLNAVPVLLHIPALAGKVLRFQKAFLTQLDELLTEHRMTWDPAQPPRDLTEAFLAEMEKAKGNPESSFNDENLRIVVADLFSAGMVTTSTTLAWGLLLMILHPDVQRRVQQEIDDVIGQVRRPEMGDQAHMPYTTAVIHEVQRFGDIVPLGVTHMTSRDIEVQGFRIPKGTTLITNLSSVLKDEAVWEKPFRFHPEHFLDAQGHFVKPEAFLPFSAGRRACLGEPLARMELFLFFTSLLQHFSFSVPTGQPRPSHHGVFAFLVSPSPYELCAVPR

System in one data set: not listed separately
Put plainly: Plasma stability in human plasma assessed as compound remaining measured after 120 mins. Type of data set: ADME, cell-free. Particulars: read-out: Stability.
Turning to `COc1ccc(N2C(=O)C(C)(C)N(Cc3ccc(Br)c(C)c3)C2=S)cc1`, the remaining at 2 h turned out to be 97.3%.
On to `CC(C)[N+](C)(CCOC(=O)C1c2ccccc2Oc2ccccc21)C(C)C` [PROPANTHELINE], for which the remaining at 2 h turned out to be 2.91%.
For the molecule `COc1ccc(N2C(=O)C(C)(C)N(Cc3ccc(C)c(C)c3)C2=S)cc1`, the remaining at 2 h worked out at 102%.

In the next data set the target is T1, Cytochrome P450 3A4 (Homo sapiens, UniProt P08684). The data set can be described thus: Inhibition of CYP3A4 (unknown origin) using midazolam as substrate. Type of data set: ADME.
T1 sequence (P08684 whole entry): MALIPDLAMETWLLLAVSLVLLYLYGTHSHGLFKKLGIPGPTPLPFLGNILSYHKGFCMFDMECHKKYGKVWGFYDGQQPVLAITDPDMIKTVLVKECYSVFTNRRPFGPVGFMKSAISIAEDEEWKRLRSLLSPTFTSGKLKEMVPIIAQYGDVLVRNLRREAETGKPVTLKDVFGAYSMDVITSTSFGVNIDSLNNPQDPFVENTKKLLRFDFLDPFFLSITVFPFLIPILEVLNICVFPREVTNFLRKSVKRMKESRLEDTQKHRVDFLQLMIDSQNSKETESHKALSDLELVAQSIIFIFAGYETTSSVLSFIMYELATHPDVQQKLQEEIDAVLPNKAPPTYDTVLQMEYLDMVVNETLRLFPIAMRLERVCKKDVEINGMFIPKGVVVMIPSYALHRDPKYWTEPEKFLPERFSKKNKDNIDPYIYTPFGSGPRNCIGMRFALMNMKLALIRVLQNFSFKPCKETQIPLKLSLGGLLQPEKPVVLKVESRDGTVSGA
Conditions: not given
As to `COc1ccc(N2C(=O)C(C)(C)N(Cc3ccc(Br)c(C)c3)C2=S)cc1`, the IC50 is > 10 µM.
For `COc1ccc(N2C(=O)C(C)(C)N(Cc3ccc(C)c(C)c3)C2=S)cc1`, the IC50 was > 10 µM.

System in a further data set: not listed separately
Put plainly: Plasma stability in human plasma assessed as compound remaining measured immediately. Type of data set: ADME, cell-free. To be noted: read-out: Stability.
Take `COc1ccc(N2C(=O)C(C)(C)N(Cc3ccc(Br)c(C)c3)C2=S)cc1`: the remaining at 0 min stood at 100%.
As to `COc1ccc(N2C(=O)C(C)(C)N(Cc3ccc(C)c(C)c3)C2=S)cc1`, the remaining at 0 min came to 100%.

The subject of a further data set is HEK-293T. Put plainly: Cytotoxicity against human HEK293T cells assessed as cell viability at 50 uM measured after 24 hrs by CCK8 assay. Type of data set: toxicity, cell-based.
Conditions: not given
For orientation: Formazan colour is commonly taken as a measure of viable cells.
In the case of `COc1ccc(N2C(=O)C(C)(C)N(Cc3ccc(Br)c(C)c3)C2=S)cc1`, the Activity entry is listed as “Toxic”.
For the molecule `COc1ccc(N2C(=O)C(C)(C)N(Cc3ccc(C)c(C)c3)C2=S)cc1`, the Activity entry is “Toxic”.

System in a further data set: not listed separately
The data set can be described thus: Plasma stability in human plasma assessed as compound remaining measured after 15 mins. Type of data set: ADME, cell-free. To be noted: read-out: Stability.
In the case of `COc1ccc(N2C(=O)C(C)(C)N(Cc3ccc(Br)c(C)c3)C2=S)cc1`, the remaining at 0.25 h amounted to 96.6%.
Take `CC(C)[N+](C)(CCOC(=O)C1c2ccccc2Oc2ccccc21)C(C)C` [PROPANTHELINE]: the remaining at 0.25 h was 58.5%.
Regarding `COc1ccc(N2C(=O)C(C)(C)N(Cc3ccc(C)c(C)c3)C2=S)cc1`, the remaining at 0.25 h amounted to 105%.

System in a further data set: not listed separately
The data set can be described thus: Aqueous solubility of the compound in pH 7.4 PBS buffer.
Conditions: not given
The data set is classed as physicochemical.
`COc1ccc(N2C(=O)C(C)(C)N(Cc3ccc(Br)c(C)c3)C2=S)cc1` registered a solubility of 0.032 µM (≈ 0.0139 µg/mL).
The molecule `COc1ccc(N2C(=O)C(C)(C)N(Cc3ccc(C)c(C)c3)C2=S)cc1` registered a solubility of 0.017 µM (≈ 0.00626 µg/mL).

A further data set has as its target T2, Cytochrome P450 1A2 (Homo sapiens, UniProt P05177).
T2 sequence (P05177 whole entry): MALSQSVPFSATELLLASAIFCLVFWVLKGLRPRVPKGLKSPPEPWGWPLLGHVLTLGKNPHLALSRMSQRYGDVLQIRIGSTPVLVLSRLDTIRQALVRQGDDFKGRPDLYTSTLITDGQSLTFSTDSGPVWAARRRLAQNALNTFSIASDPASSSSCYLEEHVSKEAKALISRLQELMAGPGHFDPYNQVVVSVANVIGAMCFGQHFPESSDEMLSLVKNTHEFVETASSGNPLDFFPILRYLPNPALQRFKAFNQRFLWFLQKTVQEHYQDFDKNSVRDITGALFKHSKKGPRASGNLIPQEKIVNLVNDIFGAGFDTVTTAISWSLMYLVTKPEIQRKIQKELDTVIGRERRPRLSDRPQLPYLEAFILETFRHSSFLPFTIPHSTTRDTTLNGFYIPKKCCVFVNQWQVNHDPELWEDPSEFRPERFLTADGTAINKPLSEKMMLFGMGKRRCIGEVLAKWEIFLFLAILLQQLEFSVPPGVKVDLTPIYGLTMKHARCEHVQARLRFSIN
The data set can be described thus: Inhibition of CYP1A2 (unknown origin).
Conditions: not given
Type of data set: ADME.
On to `COc1ccc(N2C(=O)C(C)(C)N(Cc3ccc(Br)c(C)c3)C2=S)cc1`, for which the half-maximal inhibitory concentration (IC50) is > 100 µM.
For the molecule `COc1ccc(N2C(=O)C(C)(C)N(Cc3ccc(C)c(C)c3)C2=S)cc1`, the IC50 was > 100 µM.

System in a further data set: not listed separately
Put plainly: Plasma stability in human plasma assessed as compound remaining measured after 5 mins. Type of data set: ADME, cell-free. Particulars: read-out: Stability.
As for `COc1ccc(N2C(=O)C(C)(C)N(Cc3ccc(Br)c(C)c3)C2=S)cc1`, the remaining at 5 min is 99.2%.
As for `CC(C)[N+](C)(CCOC(=O)C1c2ccccc2Oc2ccccc21)C(C)C` [PROPANTHELINE], the remaining at 5 min is 88%.
The same measure, in the same setting: the figure for `COc1ccc(N2C(=O)C(C)(C)N(Cc3ccc(C)c(C)c3)C2=S)cc1` is 98.9%.

For a further data set, the target named is Cytochrome P450 2C19 (Homo sapiens, UniProt P33261). The data set can be described thus: Inhibition of CYP2C19 (unknown origin). Type of data set: ADME.
Chain of Cytochrome P450 2C19 (P33261 whole entry): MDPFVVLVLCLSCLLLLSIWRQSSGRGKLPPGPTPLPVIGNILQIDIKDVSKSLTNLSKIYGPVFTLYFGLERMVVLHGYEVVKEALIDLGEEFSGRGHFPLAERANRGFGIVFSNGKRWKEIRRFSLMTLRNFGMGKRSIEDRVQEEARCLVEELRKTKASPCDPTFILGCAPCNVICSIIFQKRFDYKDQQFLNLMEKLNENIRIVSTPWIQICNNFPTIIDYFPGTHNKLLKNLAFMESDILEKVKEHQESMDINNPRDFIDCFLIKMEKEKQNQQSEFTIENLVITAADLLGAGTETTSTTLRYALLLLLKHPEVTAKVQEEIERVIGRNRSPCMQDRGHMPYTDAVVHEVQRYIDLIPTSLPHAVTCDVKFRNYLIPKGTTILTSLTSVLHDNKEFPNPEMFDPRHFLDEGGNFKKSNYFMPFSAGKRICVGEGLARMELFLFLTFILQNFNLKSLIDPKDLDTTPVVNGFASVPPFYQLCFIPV
Conditions: not given
`COc1ccc(N2C(=O)C(C)(C)N(Cc3ccc(Br)c(C)c3)C2=S)cc1` returned an IC50 of 1.4 µM.
Regarding `COc1ccc(N2C(=O)C(C)(C)N(Cc3ccc(C)c(C)c3)C2=S)cc1`, half-maximal inhibition (IC50) required 2.95 µM.

System in the next data set: not listed separately
Put plainly: Inhibition of NLRP3 inflammasome pathway in human THP-1 cells assessed as inhibition of LPS/MSU-induced IL-1beta secretion.
Conditions: not given
As for `COc1ccc(N2C(=O)C(C)(C)N(Cc3ccc(Br)c(C)c3)C2=S)cc1`, the IC50 stood at 10.1 µM.
With `COc1ccc(N2C(=O)C(C)(C)N(Cc3ccc(C)c(C)c3)C2=S)cc1`, the IC50 is 6.9 µM.

The next data set deals with Cytochrome P450 2C9 (Homo sapiens, UniProt P11712). Put plainly: Inhibition of CYP2C9 (unknown origin).
Chain of Cytochrome P450 2C9 (P11712 whole entry): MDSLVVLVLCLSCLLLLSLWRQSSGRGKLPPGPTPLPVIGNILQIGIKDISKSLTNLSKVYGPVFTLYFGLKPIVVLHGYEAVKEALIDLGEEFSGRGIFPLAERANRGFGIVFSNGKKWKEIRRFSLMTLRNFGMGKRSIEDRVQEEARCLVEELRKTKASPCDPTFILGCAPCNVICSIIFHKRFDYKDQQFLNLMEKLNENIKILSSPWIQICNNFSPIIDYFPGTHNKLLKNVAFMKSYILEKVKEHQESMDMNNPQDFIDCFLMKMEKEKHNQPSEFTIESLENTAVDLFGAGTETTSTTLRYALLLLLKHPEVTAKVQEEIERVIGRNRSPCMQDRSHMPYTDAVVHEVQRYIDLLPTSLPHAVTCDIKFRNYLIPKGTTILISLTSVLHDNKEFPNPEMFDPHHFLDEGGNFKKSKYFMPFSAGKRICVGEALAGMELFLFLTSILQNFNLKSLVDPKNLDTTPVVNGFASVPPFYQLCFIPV
Conditions: not given
The data set is classed as ADME.
On to `COc1ccc(N2C(=O)C(C)(C)N(Cc3ccc(Br)c(C)c3)C2=S)cc1`, for which the half-maximal inhibitory concentration (IC50) worked out at 6.15 µM.
The same measure, in the same setting: next, `COc1ccc(N2C(=O)C(C)(C)N(Cc3ccc(C)c(C)c3)C2=S)cc1`: 4.57 µM.

System in a further data set: not listed separately
Put plainly: Plasma stability in human plasma assessed as compound remaining measured after 30 mins. Type of data set: ADME, cell-free. To be noted: read-out: Stability.
With `COc1ccc(N2C(=O)C(C)(C)N(Cc3ccc(Br)c(C)c3)C2=S)cc1`, the remaining at 0.5 h was determined as 104%.
For the molecule `CC(C)[N+](C)(CCOC(=O)C1c2ccccc2Oc2ccccc21)C(C)C` [PROPANTHELINE], the remaining at 0.5 h was found to be 37.4%.
`COc1ccc(N2C(=O)C(C)(C)N(Cc3ccc(C)c(C)c3)C2=S)cc1`: the remaining at 0.5 h amounted to 96.2%.

System in another data set: not listed separately
The data set can be described thus: Plasma stability in human plasma assessed as compound remaining measured after 60 mins. Type of data set: ADME, cell-free. Particulars: read-out: Stability.
In the case of `COc1ccc(N2C(=O)C(C)(C)N(Cc3ccc(Br)c(C)c3)C2=S)cc1`, the remaining at 1 h came out at 105%.
As to `CC(C)[N+](C)(CCOC(=O)C1c2ccccc2Oc2ccccc21)C(C)C` [PROPANTHELINE], the remaining at 1 h was determined as 10.7%.
`COc1ccc(N2C(=O)C(C)(C)N(Cc3ccc(C)c(C)c3)C2=S)cc1`: the remaining at 1 h worked out at 102%.

The next data set has as its target Cytochrome P450 2D6 (Homo sapiens, UniProt P10635). Put plainly: Inhibition of CYP2D6 (unknown origin). The data set is classed as ADME.
Conditions: not given
In the case of `COc1ccc(N2C(=O)C(C)(C)N(Cc3ccc(Br)c(C)c3)C2=S)cc1`, the IC50 was > 10 µM.
On the same count and under the same terms, next, `COc1ccc(N2C(=O)C(C)(C)N(Cc3ccc(C)c(C)c3)C2=S)cc1`: > 10 µM.

System in a further data set: not listed separately
The data set can be described thus: Plasma stability in human plasma assessed as half life.
Conditions: not given
Type of data set: ADME, cell-free.
With `COc1ccc(N2C(=O)C(C)(C)N(Cc3ccc(Br)c(C)c3)C2=S)cc1`, the half-life is 299 h.
Still for that read-out and setting: the figure for `CC(C)[N+](C)(CCOC(=O)C1c2ccccc2Oc2ccccc21)C(C)C` [PROPANTHELINE] is 0.387 h.

For the next data set, the target named is T1, Cytochrome P450 3A4. Put plainly: Inhibition of CYP3A4 (unknown origin) using testosterone as substrate. The data set is classed as ADME.
Conditions: not given
Regarding `COc1ccc(N2C(=O)C(C)(C)N(Cc3ccc(Br)c(C)c3)C2=S)cc1`, the IC50 is > 10 µM.
As for `COc1ccc(N2C(=O)C(C)(C)N(Cc3ccc(C)c(C)c3)C2=S)cc1`, the IC50 was > 10 µM.

Source of the values: ChEMBL document CHEMBL6127076, “Scaffold hopping-driven optimization for the identification of NLRP3 inhibitors as potential gout therapeutics” (Eur J Med Chem, 2024).
